In US8329395B2 (priority 2003, dated 2012):

Experiments:
[1] = test system: B. subtilis PY79 gene transcripts; assay: Microarray profiling of transcript levels in response to TPP; type: cell-based, Bacillus subtilis; settings: wild-type cells, exponential phase, minimal medium without TPP vs with TPP
Procedure: In order to perform microarray profiling, PY79 was grown in shake-flask cultures that contained 50 ml Spizizen minimal medium with or without added thiamin pyrophosphate. Overnight cultures were diluted to Klett=10 units into fresh medium and grown to exponential growth phase (Klett=100 units). Cells from half of the culture were collected by centrifugation, and the total RNA was immediately extracted as previously described (Lee et al. (2001) J. Bacteriol. 183:7371-7380). The remaining culture was grown to early stationary phase before RNA extraction. Early stationary phase was judged to be 30 min after glucose exhaustion; glucose content in the medium was measured by a glucose analyzer 2 (Beckman, Fullerton, Calif.) using standard procedures. Preparation of labeled cDNA targets, microarray hybridization and staining procedures, and data analysis are described in Lee et al. above.

[2] = test system: thiA-lacZ fusion (ΩamyE::thiA-lacZ) in B. subtilis TH21; type: cell-based, Bacillus subtilis; settings: for repressing activity on thiA-lacZ expression: 1 μM each; for repression of thiA-lacZ expression: 1 μM in shake-flask culture, early logarithmic phase (OD600=0.8-0.9), compared to minimal medium without thiamin
Procedure: The strategy to isolate thiamin deregulated mutants of B. subtilis was to mutagenize bacteria that contained a thiA-lacZ fusion and then screen for colonies on XGAL-containing medium that were Lac^+ (i.e. blue colonies) in the presence of TPP or thiamin. A 732 bp-long DNA fragment containing 417 bp of the 5′ promoter region of thiA was prepared by PCR using standard methods and cloned unidirectionally in front of the promoterless lacZ gene of the pDG1728 vector (Guerout-Fleury et al. (1996) Gene 180:57-61), resulting in plasmid pTH12. This vector is designed to introduce ectopic transcriptional lacZ fusions into the non-essential amyE locus of B. subtilis. Plasmid pTH12 was linearized by restriction enzyme digestion and transformed into B. subtilis PY79, selecting for colonies that were resistant to 100 μg/ml spectinomycin.

Cc1ncc(C[n+]2csc(CCOP(=O)(O)OP(=O)(O)O)c2C)c(N)n1 [TPP, thiamin pyrophosphate]
transcript ratio wt−vit/wt+vit, gene dxs (yqiE) [1]: n/c | transcript ratio wt−vit/wt+vit, gene thiA [1]: 62 | transcript ratio wt−vit/wt+vit, gene thiC [1]: n/c | transcript ratio wt−vit/wt+vit, gene thiD1 (yjbV) [1]: 32 | transcript ratio wt−vit/wt+vit, gene thiD2 [1]: n/c^b | transcript ratio wt−vit/wt+vit, gene thiF (yjbU) [1]: 90 | transcript ratio wt−vit/wt+vit, gene thiG (yjbT) [1]: 82 | transcript ratio wt−vit/wt+vit, gene thiK [1]: n/c | transcript ratio wt−vit/wt+vit, gene thiL (ydiA) [1]: n/c | transcript ratio wt−vit/wt+vit, gene thiO (goxB) [1]: 67 | transcript ratio wt−vit/wt+vit, gene thiS (yjbS) [1]: 84 | transcript ratio wt−vit/wt+vit, gene ykoC [1]: 12 | transcript ratio wt−vit/wt+vit, gene ykoD [1]: 26 | transcript ratio wt−vit/wt+vit, gene ykoE [1]: 17 | transcript ratio wt−vit/wt+vit, gene ykoF [1]: 20 | transcript ratio wt−vit/wt+vit, gene ylmB [1]: 5.0 | transcript ratio wt−vit/wt+vit, gene yloS [1]: 1.6 | transcript ratio wt−vit/wt+vit, gene ytbJ [1]: n/c | transcript ratio wt−vit/wt+vit, gene yuaA [1]: 7.4

Nc1ncnc2c1ncn2[C@@H]1O[C@H](CO)[C@@H](O)[C@H]1O [adenosine]
repressing activity on thiA-lacZ expression [2]: showed repressing activity

Cc1ncc(CO)c(N)n1 [HMP, 4-amino-5-hydroxymethyl-2-methylpyrimidine]
repression of thiA-lacZ expression [2]: 6- to 7 fold

Cc1ncc(C[n+]2csc(CCO)c2C)c(N)n1 [thiamin]
repression of thiA-lacZ expression [2]: approximately 80 fold

c1cscn1 [thiazole]
repressing activity on thiA-lacZ expression [2]: showed repressing activity
